Target: T1, Ba/F3 cell EGFR Exon20 ins NPH (Homo sapiens, UniProt P00533, INS773NPH)
T1 construct: expressed in transfected cells; host or cells: Ba/F3
Test: Ba/F3 cell proliferation suppression, EGFR Exon20 ins NPH
Type: cell-based
Conditions: GI50 class; Ba/F3 cell line with NPH inserted at Exon20 of EGFR; 72 hours
Procedure, shortened: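 72 h compound exposure, 0.3 nM–50 um (12 points, 3:1 dilution in DMSO); viability by CellTiter-Glo luminescence. Ba/F3 medium: RPMI-1640, 10% FBS, 5 ng/ml IL-3, 1 ug/ml puromycin for transduced cells. GI50 vs control, n=3.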

Row | Compound | Ba/F3 (NPH) Activity
1 | C=CCN1CCN(C2CCN(c3cc(OC)c(Nc4cc(N5OCC[C@@H]5c5cccc(Cl)c5C)ncn4)cc3NC(=O)C=C)CC2)CC1 [Example 213, N-(2-(4-(4-allylpiperazine-1-yl)piperidine-1-yl)-5-((6-((R)-3-(3-chloro-methylphenyl)isoxazolidine-2-yl)pyrimidine-4-yl)amino)-4-methoxyphenyl) acrylamide] | A (GI50 < 50 nM)
2 | C=CC(=O)Nc1cc(Nc2cc(N3OCC[C@@H]3c3cccc(Cl)c3F)ncn2)c(OC)cc1N1CC[C@@H](N(C)C)C1 [compound 834, N-(5-((6-((R)-3-(3-chloro-2-fluorophenyl)isoxazolidine-2-yl)pyrimidine-4-yl)amino)-2-((R)-3-(dimethylamino)pyrolidine-1-yl)-4-methoxyphenyl) acrylamide] | A (GI50 < 50 nM)
3 | C=CC(=O)Nc1cc(Nc2cc(N3OCC[C@@H]3c3ccc(Cl)c(Cl)c3F)ncn2)c(OC)cc1N1CCC(N2C[C@@H]3C[C@H]2CO3)CC1 [compound 770, N-(2-(4-((1S,4S)-2-oxa-5-azabicyclo [2.2.1]heptane-5-yl)piperidine-1-yl)-5-((6-((R)-3-(3,4-dichloro-2-fluorophenyl)isoxazolidine-2-yl)pyrimidine-4-yl)amino)-4-methoxyphenyl) acrylamide] | A (GI50 < 50 nM)
4 | C=CC(=O)Nc1cc(Nc2cc(N3OCC[C@@H]3c3cc(F)cc(F)c3)ncn2)c(OC)cc1N1CCC(N2CCN(C3CC3)C[C@@H]2C)CC1 [Example 111, N-(2-(4-((S)-4-cyclopropyl-2-methylpiperazine-1-yl)piperidine-1-yl)-5-((6-((R)-3-(3,5-difluorophenyl)isoxazolidine-2-yl)pyrimidine-4-yl)amino)-4-methoxyphenyl) acrylamide] | A (GI50 < 50 nM)
5 | C=CC(=O)Nc1cc(Nc2cc(N3OCC[C@@H]3c3c(F)ccc(F)c3Cl)ncn2)c(OC)cc1N1CCC(N2CCN(C3CC3)[C@H](C)C2)CC1 [compound 935, N-(5-((6-((R)-3-(2-chloro-3,6-difluorophenyl)isoxazolidine-2-yl)pyrimidine-4-yl)amino)-2-(4-((R)-4-cyclopropyl-3-methylpiperazine-1-yl)piperidine-1-yl)-4-methoxyphenyl) acrylamide] | A (GI50 < 50 nM)
6 | C=CC(=O)Nc1cc(Nc2cc(N3OCC[C@@H]3c3ccc(Cl)cc3F)ncn2)c(OC)cc1N(C)CCN(C)C [compound 371, N-(5-((6-((R)-3-(4-chloro-2-fluorophenyl)isoxazolidine-2-yl)pyrimidine-4-yl)amino)-2-((2-(dimethylamino)ethyl)(methyl)amino)-4-methoxyphenyl) acrylamide] | A (GI50 < 50 nM)
7 | C=CC(=O)Nc1cc(Nc2cc(N3OCC[C@@H]3c3cc(F)ccc3F)ncn2)c(OC)cc1N1CCN(C2COC2)CC1 [compound 881, N-(5-((6-((R)-3-(2,5-difluorophenyl)isoxazolidine-2-yl)pyrimidine-4-yl)amino)-4-methoxy-2-(4-(oxetane-3-yl)piperazine-1-yl)phenyl) acrylamide] | A (GI50 < 50 nM)
8 | C=CC(=O)Nc1cc(Nc2cc(N3OCC[C@@H]3Cc3cccc(Cl)c3OC)ncn2)c(OC)cc1N1CCC(N2CCN(C3CC3)CC2)CC1 [compound 1054, N-(5-((6-((S)-3-(3-chloro-2-methoxybenzyl)isoxazolidine-2-yl)pyrimidine-4-yl)amino)-2-(4-(4-cyclopropylpiperazine-1-yl)piperidine-1-yl)-4-methoxyphenyl) acrylamide] | A (GI50 < 50 nM)
9 | C#Cc1cccc([C@H]2CCON2c2cc(Nc3cc(NC(=O)C=C)c(N4CC[C@@H](N(C)C)C4)cc3OC)ncn2)c1 [compound 653, N-(2-((R)-3-(dimethylamino)pyrolidine-1-yl)-5-((6-((R)-3-(3-ethynylphenyl)isoxazolidine-2-yl)pyrimidine-4-yl)amino)-4-methoxyphenyl) acrylamide] | A (GI50 < 50 nM)
10 | C=CC(=O)Nc1cc(Nc2cc(N3OCC[C@@H]3c3ccc(Cl)cc3)ncn2)c(OC)cc1N1CCC(N2CCN(CC)CC2)CC1 [Example 254, N-(5-((6-((R)-3-(4-chlorophenyl)isoxazolidine-2-yl)pyrimidine-4-yl)amino)-2-(4-(4-ethylpiperazine-1-yl)piperidine-1-yl)-4-methoxyphenyl) acrylamide] | A (GI50 < 50 nM)
11 | C=CC(=O)Nc1cc(Nc2cc(N3OCC[C@@H]3c3ccc(Cl)cc3F)ncn2)c(OC)cc1N1CCC(N(C)C)CC1 [compound 403, N-(5-((6-((R)-3-(4-chloro-2-fluorophenyl)isoxazolidine-2-yl)pyrimidine-4-yl)amino)-2-(4-(dimethylamino)piperidine-1-yl)-4-methoxyphenyl) acrylamide] | A (GI50 < 50 nM)
12 | C=CC(=O)Nc1cc(Nc2cc(N3OCC[C@@H]3c3cccc(F)c3F)ncn2)c(OC)cc1N1CCN(C2CC2)CC1 [compound 333, N-(2-(4-cyclopropylpiperazine-1-yl)-5-((6-((R)-3-(2,3-difluorophenyl)isoxazolidine-2-yl)pyrimidine-4-yl)amino)-4-methoxyphenyl) acrylamide] | A (GI50 < 50 nM)
13 | C=CC(=O)Nc1cc(Nc2cc(N3OCC[C@H]3c3c(F)cccc3F)ncn2)c(OC)cc1N1CCC(N2CCC(N(C)C)CC2)CC1 [compound 369, N-(5-((6-((S)-3-(2,6-difluorophenyl)isoxazolidine-2-yl)pyrimidine-4-yl)amino)-2-(4-(dimethylamino)-[1,4'-bipiperidine]-1'-yl)-4-methoxyphenyl) acrylamide] | C (500 nM ≤ GI50 < 5000 nM)
14 | C=CC(=O)Nc1cc(Nc2cc(N3OCC[C@@H]3c3ccccc3)ncn2)c(OC)cc1N1CCN(C2CCCC2)CC1 [Example 279, N-(2-(4-cyclopentylpiperazine-1-yl)-4-methoxy-5-((6-((R)-3-phenylisoxazolidine-2-yl)pyrimidine-4-yl)amino)phenyl) acrylamide] | A (GI50 < 50 nM)
15 | C=CC(=O)Nc1cc(Nc2cc(N3OCC[C@@H]3c3cccc(OC)c3)ncn2)c(OC)cc1N1CCC(N2CC[C@@H](N(C)C)C2)CC1 [compound 728, N-(2-(4-((R)-3-(dimethylamino)pyrolidine-1-yl)piperidine-1-yl)-4-methoxy-5-((6-((R)-3-(3-methoxyphenyl)isoxazolidine-2-yl)pyrimidine-4-yl)amino)phenyl)acrylamide] | A (GI50 < 50 nM)
16 | C=CC(=O)Nc1cc(Nc2cc(N3OCC[C@@H]3c3ccc(C)nc3)ncn2)c(OC)cc1N(C)CCN(C)C [Example 36, N-(2-((2-(dimethylamino)ethyl)(methyl)amino)-4-methoxy-5-((6-((R)-3-(6-methylpyridine-3-yl)isoxazolidine-2-yl)pyrimidine-4-yl)amino)phenyl) acrylamide] | A (GI50 < 50 nM)
17 | C=CC(=O)Nc1cc(Nc2cc(N3OCC[C@@H]3c3cccc(C#N)c3)ncn2)c(OC)cc1N1CCC(N2C[C@H]3C[C@@H]2CO3)CC1 [compound 389, N-(2-(4-((1R,4R)-2-oxa-5-azabicyclo[2.2.1]heptane-5-yl)piperidine-1-yl)-5-((6-((R)-3-(3-cyanophenyl)isoxazolidine-2-yl)pyrimidine-4-yl)amino)-4-methoxyphenyl) acrylamide] | A (GI50 < 50 nM)
18 | C=CC(=O)Nc1cc(Nc2cc(N3OCC[C@H]3c3c(F)cccc3F)ncn2)c(OC)cc1N1CCC(N2CCN(C)[C@@H](C)C2)CC1 [compound 313, N-(5-((6-((S)-3-(2,6-difluorophenyl)isoxazolidine-2-yl)pyrimidine-4-yl)amino)-2-(4-((S)-3,4-dimethylpiperazine-1-yl)piperidine-1-yl)-4-methoxyphenyl) acrylamide] | C (500 nM ≤ GI50 < 5000 nM)
19 | C=CC(=O)Nc1cc(Nc2cc(N3OCC[C@@H]3c3cccc(C)c3F)ncn2)c(OC)cc1N1CCN(C)CC1 [compound 845, N-(5-((6-((R)-3-(2-fluoro-3-methylphenyl)isoxazolidine-2-yl)pyrimidine-4-yl)amino)-4-methoxy-2-(4-methylpiperazine-1-yl)phenyl)acrylamide] | A (GI50 < 50 nM)
20 | C=CC(=O)Nc1cc(Nc2cc(N3OCC[C@@H]3c3cc(F)cc(F)c3)ncn2)c(OC)cc1N1C[C@H]2C[C@@H]1CO2 [compound 436, N-(2-((1R,4R)-2-oxa-5-azabicyclo[2.2.1]heptane-5-yl)-5-((6-((R)-3-(3,5-difluorophenyl)isoxazolidine-2-yl)pyrimidine-4-yl)amino)-4-methoxyphenyl) acrylamide] | B (50 nM ≤ GI50 < 500 nM)
21 | C=CC(=O)Nc1cc(Nc2cc(N3OCC[C@@H]3c3cccc(F)c3)ncn2)c(OC)cc1N1CCC(N(C)C)CC1 [Example 245, N-(2-(4-(dimethylamino)piperidine-1-yl)-5-((6-((R)-3-(3-fluorophenyl)isoxazolidine-2-yl)pyrimidine-4-yl)amino)-4-methoxyphenyl) acrylamide] | A (GI50 < 50 nM)
22 | C=CC(=O)Nc1cc(Nc2cc(N3OCC[C@@H]3c3cccc(F)c3)ncn2)c(OC)cc1N1CCC(N2CCN(C3COC3)CC2)CC1 [Example 80, N-(5-((6-((R)-3-(3-fluorophenyl)isoxazolidine-2-yl)pyrimidine-4-yl)amino)-4-methoxy-2-(4-(4-(oxetane-3-yl)piperazine-1-yl)piperidine-1-yl)phenyl) acrylamide] | A (GI50 < 50 nM)
23 | C=CC(=O)Nc1cc(Nc2cc(N3OCC[C@@H]3c3ccc(F)cc3)ncn2)c(OC)cc1N1CCC(N2CCOCC2)CC1 [compound 786, N-(5-((6-((R)-3-(4-fluorophenyl)isoxazolidine-2-yl)pyrimidine-4-yl)amino)-4-methoxy-2-(4-morpholinopiperidine-1-yl)phenyl)acrylamide] | A (GI50 < 50 nM)
